Data: paper PMC12856317, “A reversible feedback mechanism regulating mitochondrial heme synthesis” (The Journal of Biological Chemistry, 2025)
Substitutions are numbered along the chain they refer to.

Experiments:
Format in all cases: biochemical
[1] = target: T1, WT apoALAS2 (residues 54–587) (Homo sapiens, UniProt P22557); experiment: Inhibitor competition, apoenzyme reactivation by PLP with or without hemin; conditions: for Vmax / Km: PLP varied; for Km: 95% confidence interval in brackets
T1 construct: His6-SUMO (N, cleaved yes); made in house; host or cells: Escherichia coli BL21-Codon Plus (DE3)-RIL
T1 sequence (P22557 54-587): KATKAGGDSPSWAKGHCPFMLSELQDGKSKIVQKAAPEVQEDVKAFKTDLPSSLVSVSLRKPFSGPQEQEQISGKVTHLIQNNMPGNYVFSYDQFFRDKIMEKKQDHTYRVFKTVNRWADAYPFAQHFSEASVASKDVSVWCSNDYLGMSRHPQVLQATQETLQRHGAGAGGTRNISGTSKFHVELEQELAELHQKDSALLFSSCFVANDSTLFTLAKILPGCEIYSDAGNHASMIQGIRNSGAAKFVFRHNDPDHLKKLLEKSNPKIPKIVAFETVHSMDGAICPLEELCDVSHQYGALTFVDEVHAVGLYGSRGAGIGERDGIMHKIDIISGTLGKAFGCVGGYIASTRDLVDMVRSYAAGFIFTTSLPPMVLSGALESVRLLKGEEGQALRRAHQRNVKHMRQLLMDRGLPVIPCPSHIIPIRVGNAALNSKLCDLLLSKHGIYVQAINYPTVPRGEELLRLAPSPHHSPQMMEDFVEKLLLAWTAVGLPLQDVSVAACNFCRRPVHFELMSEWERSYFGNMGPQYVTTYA
Experimental: (§1) A discontinuous colorimetric activity assay adapted from Shoolingin-Jordan et al. and Bailey et al. was used to measure the enzyme activity ([48], [74]). The reaction was initiated by adding 100 nM purified enzyme to 50 mM potassium phosphate, pH 7.0, 10 mM MgCl2, 1 mM DTT, 100 mM glycine, and 300 μM succinyl-CoA (175 μl total). The reaction was incubated at 37 °C for 15 min and terminated with 100 μl of cold 10% trichloroacetic acid. The precipitated protein was removed by centrifugation for 5 min at 13,000g, and 240 μl of the supernatant was mixed with 240 μl of 1 M sodium acetate, pH 4.6. To derivatize ALA, 20 μl of acetylacetone was added to the mixture and boiled at 100 °C for 10 min. After the sample was cooled for 20 min, 100 μl aliquots were transferred into a clear 96-well plate in triplicate. An equal volume of Ehrlich’s reagent (p-Dimethylaminobenzaldehyde, DMAB) was added to each well, and the absorbance was monitored at 553 nm using a microplate reader (Thermo Fisher Scientific). The peak absorbance value was converted to molar ALA concentration using ε553 = 60,400 M^−1 cm^−1.
(§2) For inhibitor competition experiments, the apoenzymes were preincubated with hemin or PLP (0–100 μM) for 15 min at 25 °C in the dark before initiating the reaction. Next, either PLP or hemin (0–100 μM) was titrated into the reactions to measure enzyme activation after hemin inhibition or enzyme inhibition of the PLP-treated apoenzyme, respectively. For succinyl-CoA:hemin competition analyses, the WT holoenzyme was mixed with hemin (0, 25, 50, and 100 μM), followed by the addition of increasing succinyl-CoA concentrations (0, 25, 50, 100, 250, and 500 μM). All experiments were performed with a minimum of three biological replicates, each with three technical replicates. Data were fit using nonlinear regression to generate an agonist dose-response curve (EC50) or an inhibitor dose-response curve (IC50). Lineweaver-Burk analysis was performed using the resulting kinetic parameters (Vmax and KM) in GraphPad Prism 10.

[2] = target: T2, apoALAS2 Cys-mut (C70A/C555A/C558A) (Homo sapiens, UniProt P22557, C555A/C558A/C70A); experiment: Inhibitor competition, apoenzyme reactivation by PLP with hemin
T2 construct: Site-directed mutagenesis was performed on the mature ALAS2 (residues 54–587) construct to generate truncations and cysteine mutants; His6-SUMO (N, cleaved yes); made in house; host or cells: Escherichia coli BL21-Codon Plus (DE3)-RIL
T2 sequence (P22557 54-587 C70A/C555A/C558A): T1 sequence (P22557 54-587) with C17A, C502A, C505A
Experimental: as §1, §2

[3] = target: T3, apoALAS2 ΔN (residues 75–587) (Homo sapiens, UniProt P22557); experiment: as above
T3 construct: a truncation without HRM3 (ΔN, residues 75–587); His6-SUMO (N, cleaved yes); made in house; host or cells: Escherichia coli BL21-Codon Plus (DE3)-RIL
T3 sequence (P22557 75-587): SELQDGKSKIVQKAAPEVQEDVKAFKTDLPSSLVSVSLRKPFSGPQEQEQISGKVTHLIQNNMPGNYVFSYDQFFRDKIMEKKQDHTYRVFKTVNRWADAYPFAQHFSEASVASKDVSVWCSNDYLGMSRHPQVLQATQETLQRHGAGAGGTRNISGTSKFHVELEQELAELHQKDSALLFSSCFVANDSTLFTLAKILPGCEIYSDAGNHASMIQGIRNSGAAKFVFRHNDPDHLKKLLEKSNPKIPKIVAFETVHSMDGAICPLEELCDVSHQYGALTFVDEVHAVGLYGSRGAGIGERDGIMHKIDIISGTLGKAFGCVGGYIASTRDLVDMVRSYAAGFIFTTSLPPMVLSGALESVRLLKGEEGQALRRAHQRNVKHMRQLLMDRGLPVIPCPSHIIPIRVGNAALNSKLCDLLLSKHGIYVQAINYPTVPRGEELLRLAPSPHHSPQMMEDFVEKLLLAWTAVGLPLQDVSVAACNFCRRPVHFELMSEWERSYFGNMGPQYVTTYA
Experimental: as §1, §2

Cc1ncc(COP(=O)(O)O)c(C=O)c1O [PLP]
Vmax ([1]; hemin 0 μM): 110.84 [123.30, 100.65] nmol/min/mg | Km ([1]; hemin 0 μM): 0.86 µM | Vmax ([1]; hemin 10 μM): 91.16 [97.56, 85.54] nmol/min/mg | Km ([1]; hemin 10 μM): 3.36 µM | Vmax ([1]; hemin 25 μM): 58.17 [67.25, 51.28] nmol/min/mg | Km ([1]; hemin 25 μM): 4.78 µM | Vmax ([1]; hemin 50 μM): 45.96 [99.50, 29.88] nmol/min/mg | Km ([1]; hemin 50 μM): 11.9 µM | Vmax ([1]; hemin 100 μM): 27.29 [41.39, 20.36] nmol/min/mg | Km ([1]; hemin 100 μM): 9.82 µM | activation constant (Ka) ([1]; WT apoALAS2, PLP titration in the absence of heme): 0.72 ± 0.08 µM | EC50 ([1]; WT apoALAS2, PLP titration in the presence of 50 μM hemin): 7 ± 1 µM | apoenzyme activity restored ([1]; WT apoenzyme preincubated with 50 μM heme, excess PLP): ~50% | EC50 ([2]; Cys-mut apoALAS2, PLP titration in the presence of 50 μM hemin): 10 ± 4 µM | EC50 ([3]; ΔN apoALAS2, PLP titration in the presence of 25 μM hemin): 4 ± 2 µM

ferric chloride heme [hemin]
mode of inhibition ([1]; WT apoenzyme, varied PLP, various heme concentrations up to 100-fold excess): mixed inhibitor | mode of inhibition ([2]; Cys-mut, multiple heme concentrations (Fig. S4)): allosteric mixed inhibitor | mode of inhibition ([3]; ΔN, multiple heme concentrations (Fig. S4)): allosteric mixed inhibitor
